These results are taken from patent US10550105B2 (Ribon Therapeutics Inc., priority 2018, dated 2020).

The experiment addresses PARP7 (Homo sapiens (Human), UniProt Q7Z3E1). The experiment can be described thus: Enzymatic assay for inhibition of PARP7: TR-FRET displacement of biotinylated Probe A from the TIPARP active site. It is filed as binding. The following applies: Table A-1. The method, boiled down:
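Percent inhibition derives from the ratio of 665 to 615 nm emission, which reports how much Probe A remains bound to TIPARP. Plates sat 30 min at 25° C before the time-resolved read (320 nm excitation).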
A general note: TR-FRET usually uses a lanthanide donor and a delayed reading to cut background.

PARP7, sequence (Q7Z3E1 whole entry): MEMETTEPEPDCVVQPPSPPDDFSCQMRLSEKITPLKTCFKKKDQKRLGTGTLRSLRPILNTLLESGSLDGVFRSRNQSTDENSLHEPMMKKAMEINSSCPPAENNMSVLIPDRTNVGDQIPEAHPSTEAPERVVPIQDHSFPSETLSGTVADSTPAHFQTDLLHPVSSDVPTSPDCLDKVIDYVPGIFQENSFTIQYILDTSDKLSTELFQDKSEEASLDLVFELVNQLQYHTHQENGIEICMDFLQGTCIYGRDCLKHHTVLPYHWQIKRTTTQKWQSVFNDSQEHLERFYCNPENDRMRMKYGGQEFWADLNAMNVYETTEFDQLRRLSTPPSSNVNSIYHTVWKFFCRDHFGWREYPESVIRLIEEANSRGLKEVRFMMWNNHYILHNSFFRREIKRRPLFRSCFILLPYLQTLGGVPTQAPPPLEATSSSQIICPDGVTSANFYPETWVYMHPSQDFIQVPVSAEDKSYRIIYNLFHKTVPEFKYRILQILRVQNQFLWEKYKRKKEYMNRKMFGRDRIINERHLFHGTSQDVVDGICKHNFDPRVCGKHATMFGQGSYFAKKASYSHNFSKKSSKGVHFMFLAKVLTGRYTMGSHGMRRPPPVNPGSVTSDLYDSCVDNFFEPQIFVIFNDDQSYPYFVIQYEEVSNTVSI

In general, IC50 refers to the concentration that inhibits the measured activity by half. Read a high IC50 as a need for much substance. The compound `CC(=O)N1CCC(COc2cc3c(cc2F)CN(c2cn[nH]c(=O)c2C(C)C)C3)CC1` [Example 489, 5-(5-((1-Acetylpiperidin-4-yl)methoxy)-6-fluoroisoindolin-2-yl)-4-isopropylpyridazin-3(2H)-one] came in with an IC50 not below 1000 nM.

Consider `N#Cc1ccc(N2CCN(C(=O)COCCOc3cccc4c3CN(c3cn[nH]c(=O)c3C(F)(F)F)C4)CC2)nc1` [Example 490, 6-(4-(2-(2-((2-(6-Oxo-5-(trifluoromethyl)-1,6-dihydropyridazin-4-yl)isoindolin-4-yl)oxy)ethoxy)acetyl)piperazin-1-yl)nicotinonitrile], for which the IC50 is less than 100 nM. `N#Cc1ccc(N2CCN(C(=O)CNCCOc3cccc4c3CN(c3cn[nH]c(=O)c3C(F)(F)F)C4)CC2)nc1` [Example 491, 6-(4-((2-((2-(6-Oxo-5-(trifluoromethyl)-1,6-dihydropyridazin-4-yl)isoindolin-4-yl)oxy)ethyl)glycyl)piperazin-1-yl)nicotinonitrile] gave an IC50 of less than 100 nM. Turning to `N#Cc1ccc(N2CCN(C(=O)CCNCCOc3cccc4c3CN(c3cn[nH]c(=O)c3C(F)(F)F)C4)CC2)nc1` [Example 492, 6-(4-(3-((2-((2-(6-Oxo-5-(trifluoromethyl)-1,6-dihydropyridazin-4-yl)isoindolin-4-yl)oxy)ethyl)amino)propanoyl)piperazin-1-yl)nicotinonitrile], the IC50 is less than 100 nM. Then `CN(CCOc1cccc2c1CN(c1cn[nH]c(=O)c1C(F)(F)F)C2)CCC(=O)N1CCN(c2ccc(C#N)cn2)CC1` [Example 493, 6-(4-(3-(Methyl(2-((2-(6-oxo-5-(trifluoromethyl)-1,6-dihydropyridazin-4-yl)isoindolin-4-yl)oxy)ethyl)amino)propanoyl)piperazin-1-yl)nicotinonitrile], with less than 100 nM.

`N#Cc1ccc(N2CCN(C(=O)c3ccc(Oc4cccc5c4CN(c4cn[nH]c(=O)c4C(F)(F)F)C5)cc3)CC2)nc1` [Example 494, 6-(4-(4-((2-(6-Oxo-5-(trifluoromethyl)-1,6-dihydropyridazin-4-yl)isoindolin-4-yl)oxy)benzoyl)pipoerazin-1-yl)nicotinonitrile]: the IC50 was less than 100 nM.

`N#Cc1ccc(N2CCN(C(=O)CCOCc3cccc4c3CN(c3cn[nH]c(=O)c3C(F)(F)F)C4)CC2)nc1` [Example 495, 6-(4-(3-((2-(6-Oxo-5-(trifluoromethyl)-1,6-dihydropyridazin-4-yl)isoindolin-4-yl)methoxy)propanoyl)piperazin-1-yl)nicotinonitrile] had an IC50 of less than 100 nM.

In turn, `N#Cc1ccc(N2CCN(C(=O)CCCOCc3cccc4c3CN(c3cn[nH]c(=O)c3C(F)(F)F)C4)CC2)nc1` [Example 496, 6-(4-(4-((2-(6-Oxo-5-(trifluoromethyl)-1,6-dihydropyridazin-4-yl)isoindolin-4-yl)methoxy)butanoyl)piperazin-1-yl)nicotinonitrile] showed an IC50 of less than 100 nM.

Take `O=c1[nH]ncc(N2C[C@H]3CCCN[C@H]3C2)c1C(F)(F)F` [Example 497, 5-((4aR,7aR)-Octahydro-6H-pyrrolo[3,4-b]pyridin-6-yl)-4-(trifluoromethyl)pyridazin-3(2H)-one]: the IC50 was not below 1000 nM. `O=c1[nH]ncc(N2C[C@@H]3CCCN[C@@H]3C2)c1C(F)(F)F` [Example 498, 5-((4aS,7aS)-Octahydro-6H-pyrrolo[3,4-b]pyridin-6-yl)-4-(trifluoromethyl)pyridazin-3(2H)-one] had an IC50 not below 1000 nM.

In the case of `N#Cc1ccc(N2CCN(C(=O)COCCNc3cn[nH]c(=O)c3C(F)(F)F)CC2)nc1` [Example 499, 6-[4-[2-(2-[[6-Oxo-5-(trifluoromethyl)-1,6-dihydropyridazin-4-yl]amino]ethoxy)acetyl]piperazin-1-yl]pyridine-3-carbonitrile], the IC50 was less than 100 nM. Then `N#Cc1ccc(N2CCN(C(=O)CCOCCNc3cn[nH]c(=O)c3C(F)(F)F)CC2)nc1` [Example 500, 6-[4-[3-(2-[[6-Oxo-5-(trifluoromethyl)-1,6-dihydropyridazin-4-yl]amino]ethoxy)propanoyl]piperazin-1-yl]pyridine-3-carbonitrile], with less than 100 nM. Then `N#Cc1ccc(N2CCN(C(=O)CCOCCOc3cn[nH]c(=O)c3C(F)(F)F)CC2)nc1` [Example 501, 6-[4-[3-(2-[[6-Oxo-5-(trifluoromethyl)-1,6-dihydropyridazin-4-yl]oxy]ethoxy)propanoyl]piperazin-1-yl]pyridine-3-carbonitrile], with less than 100 nM. Then `N#Cc1ccc(N2CCN(C(=O)CCNCCOc3cn[nH]c(=O)c3C(F)(F)F)CC2)nc1` [Example 502], with not below 1000 nM; and `O=C(CCOCCNc1cn[nH]c(=O)c1C(F)(F)F)N1CCN(c2ncc(Cl)cn2)CC1` [Example 503, 5-[(2-[3-[4-(5-Chloropyrimidin-2-yl)piperazin-1-yl]-3-oxopropoxy]ethyl)amino]-4-(trifluoromethyl)-2,3-dihydropyridazin-3-one], with less than 100 nM. In turn, `O=C(CCOCCNc1cn[nH]c(=O)c1C(F)(F)F)N1CCN(c2ccc(C(F)(F)F)cn2)CC1` [Example 504, 5-[[2-(3-Oxo-3-[4-[5-(Trifluoromethyl)pyridin-2-yl]piperazin-1-yl]propoxy)ethyl]amino]-4-(trifluoromethyl)-2,3-dihydropyridazin-3-one] registered an IC50 of less than 100 nM. For `O=C(CCOCCNc1cn[nH]c(=O)c1C(F)(F)F)N1CCN(c2ncc(C(F)(F)F)cn2)CC1` [Example 505, 5-[[2-(3-Oxo-3-[4-[5-(Trifluoromethyl)pyrimidin-2-yl]piperazin-1-yl]propoxy)ethyl]amino]-4-(trifluoromethyl)-2,3-dihydropyridazin-3-one] the value was less than 100 nM; for `N#Cc1ccc(N2CCN(C(=O)CCOCCNc3cn[nH]c(=O)c3Cl)CC2)nc1` [Example 507], less than 100 nM. Compound `O=C(CCOCCNc1cn[nH]c(=O)c1Cl)N1CCN(c2ncc(C(F)(F)F)cn2)CC1` [Example 508, 4-Chloro-5-[[2-(3-oxo-3-[4-[5-(trifluoromethyl)pyrimidin-2-yl]piperazin-1-yl]propoxy)ethyl]amino]-2,3-dihydropyridazin-3-one] had a 50% inhibitory concentration (IC50) of less than 100 nM. For `O=C(CCOCCNc1cn[nH]c(=O)c1Cl)N1CCN(c2ccc(C(F)(F)F)cn2)CC1` [Example 509, 4-Chloro-5-[[2-(3-oxo-3-[4-[5-(trifluoromethyl)pyridin-2-yl]piperazin-1-yl]propoxy)ethyl]amino]-2,3-dihydropyridazin-3-one] the value was less than 100 nM; for `CN(CCOCCC(=O)N1CCN(c2ccc(C#N)cn2)CC1)c1cn[nH]c(=O)c1C(F)(F)F` [Example 510, 6-[4-[3-(2-[Methyl[6-oxo-5-(trifluoromethyl)-1,6-dihydropyridazin-4-yl]amino]ethoxy)propanoyl]piperazin-1-yl]pyridine-3-carbonitrile], less than 100 nM. For `N#Cc1ccc(N2CCN(C(=O)CCCCCNc3cn[nH]c(=O)c3C(F)(F)F)CC2)nc1` [Example 511, 6-[4-(6-[[6-Oxo-5-(trifluoromethyl)-1,6-dihydropyridazin-4-yl]amino]hexanoyl)piperazin-1-yl]pyridine-3-carbonitrile] the value was less than 100 nM; for `N#Cc1ccc(N2CCN(C(=O)CCCCCOc3cn[nH]c(=O)c3C(F)(F)F)CC2)nc1` [Example 512, 6-[4-(6-[[6-Oxo-5-(trifluoromethyl)-1,6-dihydropyridazin-4-yl]oxy]hexanoyl)piperazin-1-yl]pyridine-3-carbonitrile], less than 100 nM.

With `C[C@@H](COCCC(=O)N1CCN(c2ccc(C#N)cn2)CC1)Nc1cn[nH]c(=O)c1C(F)(F)F` [Example 513A, (S)-6-(4-(3-(2-(6-Oxo-5-(trifluoromethyl)-1,6-dihydropyridazin-4-ylamino)propoxy)propanoyl)piperazin-1-yl)nicotinonitrile], the IC50 was less than 100 nM. On to `C[C@H](COCCC(=O)N1CCN(c2ccc(C#N)cn2)CC1)Nc1cn[nH]c(=O)c1C(F)(F)F` [Example 513B, (R)-6-(4-(3-(2-(6-Oxo-5-(trifluoromethyl)-1,6-dihydropyridazin-4-ylamino)propoxy)propanoyl)piperazin-1-yl)nicotinonitrile], for which the half-inhibitory concentration (IC50) was 100 to 1000 nM. Then `N#Cc1ccc(N2CCN(C(=O)CCOC[C@H](Nc3cn[nH]c(=O)c3C(F)(F)F)c3ccccc3)CC2)nc1` [Example 514A, 6-(4-[3-[(2R)-2-[[6-Oxo-5-(trifluoromethyl)-1,6-dihydropyridazin-4-yl]amino]-2-phenylethoxy]propanoyl]piperazin-1-yl)pyridine-3-carbonitrile], with not below 1000 nM; and `N#Cc1ccc(N2CCN(C(=O)CCOC[C@@H](Nc3cn[nH]c(=O)c3C(F)(F)F)c3ccccc3)CC2)nc1` [Example 514B, 6-(4-[3-[(2S)-2-[[6-Oxo-5-(trifluoromethyl)-1,6-dihydropyridazin-4-yl]amino]-2-phenylethoxy]propanoyl]piperazin-1-yl)pyridine-3-carbonitrile], with less than 100 nM. Then `N#Cc1ccc(N2CCN(C(=O)CCOC[C@H](Cc3ccccc3)Nc3cn[nH]c(=O)c3C(F)(F)F)CC2)nc1` [Example 515B], with less than 100 nM; and `CN(CCOc1cn[nH]c(=O)c1C(F)(F)F)CCC(=O)N1CCN(c2ccc(C#N)cn2)CC1` [Example 516], with less than 100 nM.

As for `N#Cc1ccc(N2CCN(C(=O)COCCCOc3cn[nH]c(=O)c3C(F)(F)F)CC2)nc1` [Example 517, 6-(4-(2-(3-(6-Oxo-5-(trifluoromethyl)-1,6-dihydropyridazin-4-yloxy)propoxy)acetyl)piperazin-1-yl)nicotinonitrile], the IC50 is less than 100 nM. Then `O=C(CCOCCOc1cn[nH]c(=O)c1Cl)N1CCN(c2ncc(C(F)(F)F)cn2)CC1` [Example 520, 4-Chloro-5-[2-(3-oxo-3-[4-[5-(trifluoromethyl)pyrimidin-2-yl]piperazin-1-yl]propoxy)ethoxy]-2,3-dihydropyridazin-3-one], with less than 100 nM.
